Data published in ChEMBL document CHEMBL2169795, “Macrocyclic peptoid-Peptide hybrids as inhibitors of class I histone deacetylases” (ACS Med Chem Lett, 2012).
pIC50: −log10 of the molar value. Active and inactive are the calls of the source. The calls are words filed in the database; no cut-off is given here.

Assays:
Histone deacetylase = experiment: Inhibition of HDAC in human HeLa cell extracts by fluorimetric assay; type: protein assay
[1] = Cytotoxicity against human KYO1 cells after 72 hrs by XTT assay; type: functional; settings: KYO1, 72 h
MCF7 = experiment: Cytotoxicity against human MCF7 cells after 72 hrs by XTT assay; type: functional; settings: MCF7, 72 h
Histone deacetylase 8 = molecular target: T1, Histone deacetylase 8 (Homo sapiens, UniProt Q9BY41); experiment: Inhibition of human recombinant HDAC8 using Arg-His-Lys(Ac)-Lys(Ac)-AMC as substrate after 30 mins by trypsin-coupled fluorogenic assay
T1 sequence (Q9BY41 whole entry): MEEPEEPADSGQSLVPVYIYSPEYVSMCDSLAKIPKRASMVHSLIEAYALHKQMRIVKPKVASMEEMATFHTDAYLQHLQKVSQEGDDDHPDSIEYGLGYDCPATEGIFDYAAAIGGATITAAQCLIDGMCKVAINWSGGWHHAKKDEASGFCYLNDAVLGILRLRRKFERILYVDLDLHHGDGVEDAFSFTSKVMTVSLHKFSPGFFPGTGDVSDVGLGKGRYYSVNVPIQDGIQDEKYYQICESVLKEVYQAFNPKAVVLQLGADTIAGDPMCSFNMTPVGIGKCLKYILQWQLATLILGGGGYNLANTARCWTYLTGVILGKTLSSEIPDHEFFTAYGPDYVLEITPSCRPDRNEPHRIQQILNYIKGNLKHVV

HeLa = experiment: Cytotoxicity against human HeLa cells after 72 hrs by XTT assay; type: functional
Histone deacetylase 2 = Histone deacetylase 2 (Homo sapiens, UniProt Q92769); experiment: Inhibition of human recombinant HDAC2 using Ac-Lys(Ac)-7-amino-4-methylcoumarin as substrate after 30 mins by trypsin-coupled fluorogenic assay
K562 = experiment: Cytotoxicity against human K562 cells after 72 hrs by XTT assay; type: functional; settings: K562, 72 h
[2] = molecular target: T2, Protein deacetylase HDAC6 (Homo sapiens, UniProt Q9UBN7); experiment: Inhibition of human recombinant HDAC6 using Ac-Lys(Ac)-7-amino-4-methylcoumarin as substrate after 30 mins by trypsin-coupled fluorogenic assay
T2 sequence (Q9UBN7 whole entry): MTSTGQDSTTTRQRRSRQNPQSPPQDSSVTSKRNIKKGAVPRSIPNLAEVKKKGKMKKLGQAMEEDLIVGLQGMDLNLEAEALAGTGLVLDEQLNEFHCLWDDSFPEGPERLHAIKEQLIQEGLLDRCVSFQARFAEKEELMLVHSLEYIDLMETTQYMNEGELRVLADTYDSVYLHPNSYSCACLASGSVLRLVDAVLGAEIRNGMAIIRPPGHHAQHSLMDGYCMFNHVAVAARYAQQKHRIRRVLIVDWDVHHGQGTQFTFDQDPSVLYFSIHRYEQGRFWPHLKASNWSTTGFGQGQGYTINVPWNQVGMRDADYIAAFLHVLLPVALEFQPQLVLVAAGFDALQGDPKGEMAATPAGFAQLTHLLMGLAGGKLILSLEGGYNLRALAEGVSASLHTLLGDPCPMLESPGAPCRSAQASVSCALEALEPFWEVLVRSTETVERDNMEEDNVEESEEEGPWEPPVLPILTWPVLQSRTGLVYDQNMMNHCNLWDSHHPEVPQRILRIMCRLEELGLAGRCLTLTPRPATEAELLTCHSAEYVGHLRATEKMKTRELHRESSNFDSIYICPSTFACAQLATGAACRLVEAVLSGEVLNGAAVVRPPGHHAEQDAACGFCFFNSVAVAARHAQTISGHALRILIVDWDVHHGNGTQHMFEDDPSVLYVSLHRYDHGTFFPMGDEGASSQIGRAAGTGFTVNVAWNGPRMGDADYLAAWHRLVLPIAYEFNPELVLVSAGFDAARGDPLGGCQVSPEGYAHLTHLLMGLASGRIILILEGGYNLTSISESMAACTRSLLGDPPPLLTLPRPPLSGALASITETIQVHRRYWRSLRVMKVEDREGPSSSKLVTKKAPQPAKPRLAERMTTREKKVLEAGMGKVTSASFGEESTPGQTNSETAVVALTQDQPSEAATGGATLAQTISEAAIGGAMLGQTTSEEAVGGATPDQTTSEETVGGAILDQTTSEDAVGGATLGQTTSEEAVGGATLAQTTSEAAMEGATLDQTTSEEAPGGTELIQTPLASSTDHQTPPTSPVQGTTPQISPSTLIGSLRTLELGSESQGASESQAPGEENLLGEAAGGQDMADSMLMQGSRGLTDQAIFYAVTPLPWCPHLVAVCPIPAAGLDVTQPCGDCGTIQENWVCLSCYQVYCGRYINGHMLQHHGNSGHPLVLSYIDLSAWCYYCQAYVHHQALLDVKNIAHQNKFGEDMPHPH

HCT-116 = experiment: Cytotoxicity against human HCT116 cells after 72 hrs by XTT assay; type: functional; settings: HCT-116, 72 h
[3] = molecular target: Histone deacetylase 3/Nuclear receptor corepressor 2 (HDAC3/NCoR2) (Homo sapiens, UniProt O15379); experiment: Inhibition of human recombinant HDAC3/NCoR2 using Ac-Lys(Ac)-7-amino-4-methylcoumarin as substrate after 30 mins by trypsin-coupled fluorogenic assay; type: protein-complex assay
Histone deacetylase 1 = Histone deacetylase 1 (Homo sapiens, UniProt Q13547); experiment: Inhibition of human recombinant HDAC1 using Ac-Lys(Ac)-7-amino-4-methylcoumarin as substrate after 30 mins by trypsin-coupled fluorogenic assay
[4] = molecular target: T3, Protein deacetylase HDAC6 (Homo sapiens) (UniProt Q9UBN7); settings: Jurkat, 2 to 20 uM
T3 sequence (whole entry): T2 sequence (Q9UBN7 whole entry)
Description: Inhibition of HDAC6 in human Jurkat cells assessed as increase of acetylated alpha-tubulin level at 2 to 20 uM after 24 hrs by Western blot analysis

[5] = molecular target: Histone deacetylase (Homo sapiens) (UniProt Q13547+O15379+Q9UBN7+Q92769+Q9UQL6+Q8WUI4+Q9BY41+Q96DB2+P56524+Q9UKV0+Q969S8); settings: Jurkat, 2 to 20 uM
Description: Inhibition of HDAC in human Jurkat cells assessed as increase of acetylated-histone H3 level at 2 to 20 uM after 24 hrs by Western blot analysis

Chain of Histone deacetylase 3/Nuclear receptor corepressor 2 (HDAC3/NCoR2) (O15379 whole entry): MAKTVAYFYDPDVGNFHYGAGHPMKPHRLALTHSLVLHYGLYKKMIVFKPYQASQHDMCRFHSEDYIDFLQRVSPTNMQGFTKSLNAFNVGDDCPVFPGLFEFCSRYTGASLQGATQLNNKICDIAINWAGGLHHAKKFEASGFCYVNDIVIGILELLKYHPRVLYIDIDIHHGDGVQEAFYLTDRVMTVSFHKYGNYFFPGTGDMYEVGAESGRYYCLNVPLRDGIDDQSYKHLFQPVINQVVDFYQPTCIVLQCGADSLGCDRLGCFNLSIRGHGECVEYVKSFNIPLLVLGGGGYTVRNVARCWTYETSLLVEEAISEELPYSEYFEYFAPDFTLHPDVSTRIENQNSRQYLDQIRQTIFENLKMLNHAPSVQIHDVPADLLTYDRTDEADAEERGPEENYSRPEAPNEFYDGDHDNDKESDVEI
Chain of Histone deacetylase 3/Nuclear receptor corepressor 2 (HDAC3/NCoR2) (Q9Y618 whole entry, further chain): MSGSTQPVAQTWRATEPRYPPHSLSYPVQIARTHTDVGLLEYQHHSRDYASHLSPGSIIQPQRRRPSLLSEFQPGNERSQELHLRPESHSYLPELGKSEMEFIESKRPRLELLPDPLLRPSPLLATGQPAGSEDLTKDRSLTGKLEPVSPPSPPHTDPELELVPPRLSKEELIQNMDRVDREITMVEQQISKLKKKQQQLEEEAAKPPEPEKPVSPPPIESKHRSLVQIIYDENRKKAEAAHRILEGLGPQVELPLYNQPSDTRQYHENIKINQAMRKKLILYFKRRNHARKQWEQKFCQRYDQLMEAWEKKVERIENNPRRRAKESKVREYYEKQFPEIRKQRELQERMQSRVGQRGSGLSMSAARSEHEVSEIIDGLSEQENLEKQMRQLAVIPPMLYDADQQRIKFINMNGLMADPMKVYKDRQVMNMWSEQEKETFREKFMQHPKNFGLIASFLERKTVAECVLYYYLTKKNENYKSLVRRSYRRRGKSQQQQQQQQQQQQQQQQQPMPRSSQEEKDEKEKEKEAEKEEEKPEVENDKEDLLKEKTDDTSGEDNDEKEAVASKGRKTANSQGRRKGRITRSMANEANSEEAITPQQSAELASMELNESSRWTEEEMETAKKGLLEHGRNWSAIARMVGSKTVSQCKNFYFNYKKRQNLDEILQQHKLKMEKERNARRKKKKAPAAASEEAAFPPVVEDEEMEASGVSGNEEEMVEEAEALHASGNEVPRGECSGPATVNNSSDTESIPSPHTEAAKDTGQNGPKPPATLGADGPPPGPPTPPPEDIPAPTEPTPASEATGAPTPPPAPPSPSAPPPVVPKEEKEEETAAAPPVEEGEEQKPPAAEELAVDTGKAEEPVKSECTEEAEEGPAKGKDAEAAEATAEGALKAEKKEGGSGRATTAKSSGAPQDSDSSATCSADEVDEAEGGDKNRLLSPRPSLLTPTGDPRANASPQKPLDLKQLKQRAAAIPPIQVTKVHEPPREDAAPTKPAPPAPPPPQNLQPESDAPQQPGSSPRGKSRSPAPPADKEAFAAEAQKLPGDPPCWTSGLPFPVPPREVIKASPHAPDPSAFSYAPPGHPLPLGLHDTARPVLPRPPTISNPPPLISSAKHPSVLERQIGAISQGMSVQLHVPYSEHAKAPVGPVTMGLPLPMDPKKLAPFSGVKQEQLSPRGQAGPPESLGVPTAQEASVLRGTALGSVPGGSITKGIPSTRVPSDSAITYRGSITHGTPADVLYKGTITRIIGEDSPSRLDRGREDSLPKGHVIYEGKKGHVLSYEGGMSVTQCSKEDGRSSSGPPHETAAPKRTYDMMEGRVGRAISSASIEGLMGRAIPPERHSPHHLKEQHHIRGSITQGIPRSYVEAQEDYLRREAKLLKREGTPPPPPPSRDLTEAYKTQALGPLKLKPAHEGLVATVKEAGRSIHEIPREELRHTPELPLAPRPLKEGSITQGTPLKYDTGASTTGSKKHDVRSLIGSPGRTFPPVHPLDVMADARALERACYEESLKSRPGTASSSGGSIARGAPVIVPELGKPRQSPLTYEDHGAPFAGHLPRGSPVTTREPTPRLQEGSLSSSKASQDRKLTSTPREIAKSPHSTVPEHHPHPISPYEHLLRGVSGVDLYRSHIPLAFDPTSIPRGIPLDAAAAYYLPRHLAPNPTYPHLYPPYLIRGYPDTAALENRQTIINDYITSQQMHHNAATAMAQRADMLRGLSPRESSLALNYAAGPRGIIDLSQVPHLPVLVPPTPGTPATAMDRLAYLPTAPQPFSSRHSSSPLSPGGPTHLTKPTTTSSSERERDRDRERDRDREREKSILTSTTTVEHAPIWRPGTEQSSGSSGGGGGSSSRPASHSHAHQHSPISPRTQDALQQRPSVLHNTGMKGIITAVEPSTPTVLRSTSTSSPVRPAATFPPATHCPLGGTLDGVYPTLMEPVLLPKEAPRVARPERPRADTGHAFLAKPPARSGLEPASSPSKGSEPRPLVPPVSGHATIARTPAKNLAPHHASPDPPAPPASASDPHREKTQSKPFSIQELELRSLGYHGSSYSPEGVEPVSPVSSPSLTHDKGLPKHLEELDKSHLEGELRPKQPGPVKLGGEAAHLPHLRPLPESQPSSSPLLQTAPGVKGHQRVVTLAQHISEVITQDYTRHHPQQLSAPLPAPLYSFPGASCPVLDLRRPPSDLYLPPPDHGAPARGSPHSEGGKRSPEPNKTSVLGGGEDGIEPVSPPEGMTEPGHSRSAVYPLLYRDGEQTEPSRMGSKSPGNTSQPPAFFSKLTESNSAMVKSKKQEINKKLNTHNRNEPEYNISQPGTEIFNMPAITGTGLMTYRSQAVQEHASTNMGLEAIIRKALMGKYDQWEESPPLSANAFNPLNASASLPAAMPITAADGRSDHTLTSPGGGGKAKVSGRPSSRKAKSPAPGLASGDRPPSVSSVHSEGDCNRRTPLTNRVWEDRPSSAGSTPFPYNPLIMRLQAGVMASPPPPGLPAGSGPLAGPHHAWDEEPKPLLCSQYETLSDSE
Chain of Histone deacetylase 1 (Q13547 whole entry): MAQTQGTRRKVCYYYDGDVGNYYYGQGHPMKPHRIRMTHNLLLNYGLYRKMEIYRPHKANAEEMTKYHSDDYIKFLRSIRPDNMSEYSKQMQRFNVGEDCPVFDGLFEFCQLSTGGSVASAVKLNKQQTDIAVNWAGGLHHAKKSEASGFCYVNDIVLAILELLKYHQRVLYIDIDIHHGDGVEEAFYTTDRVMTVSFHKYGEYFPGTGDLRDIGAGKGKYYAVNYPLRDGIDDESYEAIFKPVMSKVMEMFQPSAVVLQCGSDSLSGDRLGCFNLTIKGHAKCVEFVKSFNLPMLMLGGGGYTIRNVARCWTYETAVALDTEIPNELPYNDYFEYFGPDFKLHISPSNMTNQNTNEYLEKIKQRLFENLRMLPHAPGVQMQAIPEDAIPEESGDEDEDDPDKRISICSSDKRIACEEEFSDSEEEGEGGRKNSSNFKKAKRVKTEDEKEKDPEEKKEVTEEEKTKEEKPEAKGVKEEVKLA
Chain of Histone deacetylase 2 (Q92769 whole entry): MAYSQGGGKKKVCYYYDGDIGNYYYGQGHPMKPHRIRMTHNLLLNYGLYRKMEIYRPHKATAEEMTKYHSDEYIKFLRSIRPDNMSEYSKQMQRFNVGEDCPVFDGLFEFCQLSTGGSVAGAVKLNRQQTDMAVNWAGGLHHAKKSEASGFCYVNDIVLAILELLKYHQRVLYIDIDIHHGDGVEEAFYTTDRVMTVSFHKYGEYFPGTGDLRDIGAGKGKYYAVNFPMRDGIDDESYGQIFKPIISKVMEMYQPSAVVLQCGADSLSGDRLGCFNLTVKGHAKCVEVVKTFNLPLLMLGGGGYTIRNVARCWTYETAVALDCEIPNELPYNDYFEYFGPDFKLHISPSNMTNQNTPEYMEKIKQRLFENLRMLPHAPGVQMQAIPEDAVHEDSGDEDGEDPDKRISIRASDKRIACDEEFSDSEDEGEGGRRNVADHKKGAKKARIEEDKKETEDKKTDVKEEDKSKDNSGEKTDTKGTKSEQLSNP

Compound `CCC(=O)CCCCCN1CC(=O)N(CCc2c[nH]c3ccccc23)CC(=O)N(CC(C)C)CCC(=O)N(C)[C@@H](C)C1=O` has an IC50 (Histone deacetylase) greater than 10 µM.
`CCC(=O)CCCCC[C@@H]1NC(=O)[C@H](C)N(C)C(=O)C[C@H](CC(C)C)NC(=O)[C@H](Cc2c[nH]c3ccccc23)NC1=O` gave a GI50 [1] of 7.5 µM, a GI50 (MCF7) of 18 µM and a pIC50 (Histone deacetylase 8) of 5.66. The GI50 (HeLa) was 4 µM, the pIC50 (Histone deacetylase 2) was 7.15 and the GI50 (K562) was 7 µM. The pIC50 [2] was less than 5.00.
With `CCC(=O)CCCCC[C@@H]1NC(=O)[C@H](C)N(C)C(=O)CCN(CC(C)C)C(=O)CN(CCc2ccccc2)C1=O` the IC50 (Histone deacetylase) was greater than 100 µM.
`CCC(=O)CCCCC[C@@H]1NC(=O)[C@H](C)N(C)C(=O)C[C@H](CC(C)C)NC(=O)CN(CCc2c[nH]c3ccccc23)C1=O` gave an IC50 (Histone deacetylase) greater than 10 µM.
For `CCC(=O)CCCCC[C@@H]1NC(=O)[C@H]2CCCCN2C(=O)[C@H]([C@@H](C)CC)NC(=O)[C@H](Cc2cn(OC)c3ccccc23)NC1=O` [APICIDIN], the GI50 [1] was 2.7 µM, the GI50 (HCT-116) was 1 µM and the GI50 (MCF7) was 5 µM. The GI50 (HeLa) was 2 µM and the GI50 (K562) was 1.5 µM.
`CCC(=O)CCCCC[C@@H]1NC(=O)[C@H](CCCCNC(C)=O)NC(=O)CCN(CC(C)C)C(=O)CN(CCc2c[nH]c3ccccc23)C1=O` gave a GI50 [1] of 10 µM, a GI50 (HCT-116) of 50 µM and a pIC50 [3] of 6.49. It also gave a GI50 (MCF7) greater than 50 µM, a pIC50 (Histone deacetylase 1) of 6.70 and a GI50 (HeLa) of 38 µM. It also gave a pIC50 (Histone deacetylase 2) of 6.43, a GI50 (K562) of 1.5 µM and a pIC50 [2] of less than 5.00. For the same compound, the IC50 (Histone deacetylase) was 0.21 µM.
Work on `CCC(=O)CCCCC[C@@H]1NC(=O)[C@H](C)N(C)C(=O)CCN(CC(C)C)C(=O)CN(CCc2c[nH]c3ccccc23)C1=O` yielded a GI50 [1] of 18 µM, a GI50 (HCT-116) of 28 µM and a pIC50 [3] of 6.19. It also gave a GI50 (MCF7) greater than 50 µM, a pIC50 (Histone deacetylase 1) of 6.27 and a GI50 (HeLa) of 30 µM. The pIC50 (Histone deacetylase 2) was 5.70, the GI50 (K562) was 15 µM and the pIC50 [2] was less than 5.00. It also gave an IC50 (Histone deacetylase) of 1 µM.
`CCC(=O)CCCCC[C@@H]1NC(=O)[C@H](C)N(C)C(=O)CCN(CC(C)C)C(=O)CN(Cc2cccc3ccccc23)C1=O` showed an IC50 (Histone deacetylase) of 18 µM.
With `CCC(=O)CCCCC[C@@H]1NC(=O)[C@H](CCCNC(=N)N)NC(=O)CCN(CC(C)C)C(=O)CN(CCc2c[nH]c3ccccc23)C1=O` the inhibition [4] was “inactive”, the GI50 [1] was greater than 50 µM and the GI50 (HCT-116) was greater than 50 µM. For the same compound, the pIC50 [3] was 7.00, the GI50 (MCF7) was greater than 50 µM and the pIC50 (Histone deacetylase 1) was 6.74. It also gave a pIC50 (Histone deacetylase 8) of 6.12, a GI50 (HeLa) greater than 50 µM and a pIC50 (Histone deacetylase 2) of 6.52. The inhibition [5] was “Active”, the GI50 (K562) was greater than 50 µM and the pIC50 [2] was less than 5.00. The IC50 (Histone deacetylase) was 0.06 µM.
Work on `CCC(=O)CCCCC[C@@H]1NC(=O)[C@H](C)N(C)C(=O)CCN(CC(C)C)C(=O)[C@H](Cc2c[nH]c3ccccc23)NC1=O` yielded an IC50 (Histone deacetylase) greater than 10 µM.
`CCC(=O)CCCCCN1CC(=O)N(Cc2cccc3ccccc23)CC(=O)N(CC(C)C)CCC(=O)N[C@@H](C)C1=O` showed an IC50 (Histone deacetylase) greater than 10 µM.
For `CCC(=O)CCCCC[C@@H]1NC(=O)[C@H](C)N(C)C(=O)CCN(CC(C)C)C(=O)CN(Cc2ccccc2)C1=O`, the IC50 (Histone deacetylase) was greater than 100 µM.
Work on `CCC(=O)CCCCC[C@@H]1NC(=O)[C@H](C)N(C)C(=O)CCN(CC(C)C)C(=O)CN(Cc2ccc(C)cc2)C1=O` yielded an IC50 (Histone deacetylase) greater than 100 µM.
With `CCC(=O)CCCCC[C@@H]1NC(=O)[C@H](CCCNC(=N)N)NC(=O)CCN(CC=C(C)C)C(=O)CN(CCc2c[nH]c3ccccc23)C1=O` the GI50 (HCT-116) was greater than 50 µM, the pIC50 [3] was 6.57 and the GI50 (MCF7) was greater than 50 µM. For the same compound, the pIC50 (Histone deacetylase 1) was 6.15, the GI50 (HeLa) was greater than 50 µM and the pIC50 (Histone deacetylase 2) was 5.92. It also gave a pIC50 [2] of less than 5.00 and an IC50 (Histone deacetylase) of 0.25 µM.
`CCC(=O)CCCCC[C@@H]1NC(=O)[C@H](C)N(C)C(=O)CCN(CC(C)C)C(=O)CN(CC2CCCCC2)C1=O` gave an IC50 (Histone deacetylase) greater than 100 µM.
